Measured values reported in patent US8481586B2, “Pyrrolo[2,3-a] carbazoles and use thereof as PIM kinase inhibitors” (Centre National de la Recherche Scientifique, priority 2008, dated 2013).
Where two headings read alike, the source gives them in different places.

Legend:
Type in all cases: biochemical
AMPK = assay: kinase panel residual activity test; conditions: compound at 10 μM
Text: (§1) MKK1, ERK 1, ERK 2, JNK1, JNK2, JNK3, p38a MAPK, p38b MAPK, p38g MAPK, p38s MAPK, ERK8, RSK1, RSK2, PDK1, PKBa, PKBb, SGK1, S6K1, PKA, ROCK2, PRK2, PKCa, PKC zeta, PKD1, MSK1, MNK1, MNK2, MAPKAP-K2, MAPKAP-K3, PRAK, CAMKKa, CAMKKb, CAMK1, SmMLCK, PHK, CHK1, CHK2, GSK3b, CDK2/cyclin A, PLK1, PLK1 (Okadaic acid), Aurora B, Aurora C, AMPK, MARK3, BRSK2, MELK, CK1, CK2, NEK2a, NEK6, NEK7, IKKb, PIM-1, PIM-2, PIM-3, SRPK1, MST2, EF2K, HIPK2, HIPK3, PAK-4, PAK5, PAK6, Src, Lck, CSK.

Aurora B = Aurora B (Homo sapiens (Human), UniProt Q96GD4); assay: kinase panel residual activity test; conditions: compound at 10 μM
Aurora B, sequence (Q96GD4 whole entry): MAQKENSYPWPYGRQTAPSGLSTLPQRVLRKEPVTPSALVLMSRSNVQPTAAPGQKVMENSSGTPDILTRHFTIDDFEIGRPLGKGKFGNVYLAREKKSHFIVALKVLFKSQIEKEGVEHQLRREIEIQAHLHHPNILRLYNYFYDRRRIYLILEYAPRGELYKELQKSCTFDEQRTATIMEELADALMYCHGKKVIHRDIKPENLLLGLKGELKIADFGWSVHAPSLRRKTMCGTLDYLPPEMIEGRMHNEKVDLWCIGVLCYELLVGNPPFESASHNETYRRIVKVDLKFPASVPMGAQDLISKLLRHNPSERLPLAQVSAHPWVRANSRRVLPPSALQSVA
Text: as §1

BRSK2 = BRSK2 (Homo sapiens (Human), UniProt Q8IWQ3); assay: kinase panel residual activity test; conditions: compound at 10 μM
Text: as §1

CAMK1 = CAMK1 (Homo sapiens (Human), UniProt Q14012); assay: kinase panel residual activity test; conditions: compound at 10 μM
CAMK1, sequence (Q14012 whole entry, species assumed): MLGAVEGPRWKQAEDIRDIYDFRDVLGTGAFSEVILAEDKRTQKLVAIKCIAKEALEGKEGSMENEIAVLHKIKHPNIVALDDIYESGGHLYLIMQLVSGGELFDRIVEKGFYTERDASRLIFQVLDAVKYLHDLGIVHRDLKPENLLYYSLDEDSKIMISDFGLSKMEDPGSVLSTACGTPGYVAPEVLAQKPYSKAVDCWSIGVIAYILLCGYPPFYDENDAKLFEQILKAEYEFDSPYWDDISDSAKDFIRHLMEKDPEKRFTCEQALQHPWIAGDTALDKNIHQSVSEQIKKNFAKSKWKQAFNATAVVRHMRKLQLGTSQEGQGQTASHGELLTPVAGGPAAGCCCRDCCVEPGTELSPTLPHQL
Text: as §1

CK1 = assay: kinase panel residual activity test; conditions: compound at 10 μM
Text: as §1

CK2 = assay: kinase panel residual activity test; conditions: compound at 10 μM
Text: as §1

EF2K = EF2K (Homo sapiens (Human), UniProt O00418); assay: kinase panel residual activity test; conditions: compound at 10 μM
Text: as §1

ERK2 = ERK2 (Homo sapiens (Human), UniProt P28482); assay: kinase panel residual activity test; conditions: compound at 10 μM
Text: as §1

GSK3b = GSK3b (Homo sapiens (Human), UniProt P49841); assay: kinase panel residual activity test; conditions: compound at 10 μM
GSK3b, sequence (P49841 whole entry, species assumed): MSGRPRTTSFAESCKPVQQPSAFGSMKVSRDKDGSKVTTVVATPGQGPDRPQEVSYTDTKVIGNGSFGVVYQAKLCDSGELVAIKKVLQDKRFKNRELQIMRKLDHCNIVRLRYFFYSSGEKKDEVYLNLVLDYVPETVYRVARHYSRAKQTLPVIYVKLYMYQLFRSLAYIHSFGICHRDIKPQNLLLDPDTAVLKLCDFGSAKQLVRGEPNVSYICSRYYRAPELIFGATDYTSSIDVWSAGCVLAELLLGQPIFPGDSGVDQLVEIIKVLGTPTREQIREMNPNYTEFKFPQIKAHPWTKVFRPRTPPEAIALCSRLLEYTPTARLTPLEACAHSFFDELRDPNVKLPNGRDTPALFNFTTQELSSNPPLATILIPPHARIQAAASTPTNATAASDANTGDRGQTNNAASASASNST
Text: as §1

JNK1 = JNK1 (Homo sapiens (Human), UniProt P45983); assay: kinase panel residual activity test; conditions: compound at 10 μM
JNK1, sequence (P45983 whole entry, species assumed): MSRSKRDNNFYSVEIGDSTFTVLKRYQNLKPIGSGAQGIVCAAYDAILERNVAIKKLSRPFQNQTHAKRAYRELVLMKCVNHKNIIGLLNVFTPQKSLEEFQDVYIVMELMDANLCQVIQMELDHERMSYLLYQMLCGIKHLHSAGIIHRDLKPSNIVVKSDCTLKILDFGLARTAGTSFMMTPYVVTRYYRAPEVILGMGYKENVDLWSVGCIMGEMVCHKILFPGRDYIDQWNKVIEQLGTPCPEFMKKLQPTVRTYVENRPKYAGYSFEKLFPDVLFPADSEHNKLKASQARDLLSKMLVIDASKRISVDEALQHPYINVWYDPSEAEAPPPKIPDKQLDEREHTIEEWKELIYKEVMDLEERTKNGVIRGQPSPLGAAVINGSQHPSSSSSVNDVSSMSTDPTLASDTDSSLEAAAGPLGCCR
Text: as §1

Lck = Lck (Homo sapiens (Human), UniProt P06239); assay: kinase panel residual activity test; conditions: compound at 10 μM
Text: as §1

MKK1 = MKK1 (Homo sapiens (Human), UniProt Q02750); assay: kinase panel residual activity test; conditions: compound at 10 μM
Text: as §1

NEK7 = NEK7 (Homo sapiens (Human), UniProt Q8TDX7); assay: kinase panel residual activity test; conditions: compound at 10 μM
NEK7, sequence (Q8TDX7 whole entry, species assumed): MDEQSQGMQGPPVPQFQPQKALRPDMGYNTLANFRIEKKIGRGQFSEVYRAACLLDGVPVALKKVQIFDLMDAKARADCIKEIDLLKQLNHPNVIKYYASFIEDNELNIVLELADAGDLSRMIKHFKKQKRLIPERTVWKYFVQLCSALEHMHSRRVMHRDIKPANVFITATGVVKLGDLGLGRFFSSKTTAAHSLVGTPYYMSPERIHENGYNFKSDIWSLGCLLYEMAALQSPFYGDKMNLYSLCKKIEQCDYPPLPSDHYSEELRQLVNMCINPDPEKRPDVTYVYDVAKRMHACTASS
Text: as §1

PAK6 = PAK6 (Homo sapiens (Human), UniProt Q9NQU5); assay: kinase panel residual activity test; conditions: compound at 10 μM
PAK6, sequence (Q9NQU5 whole entry, species assumed): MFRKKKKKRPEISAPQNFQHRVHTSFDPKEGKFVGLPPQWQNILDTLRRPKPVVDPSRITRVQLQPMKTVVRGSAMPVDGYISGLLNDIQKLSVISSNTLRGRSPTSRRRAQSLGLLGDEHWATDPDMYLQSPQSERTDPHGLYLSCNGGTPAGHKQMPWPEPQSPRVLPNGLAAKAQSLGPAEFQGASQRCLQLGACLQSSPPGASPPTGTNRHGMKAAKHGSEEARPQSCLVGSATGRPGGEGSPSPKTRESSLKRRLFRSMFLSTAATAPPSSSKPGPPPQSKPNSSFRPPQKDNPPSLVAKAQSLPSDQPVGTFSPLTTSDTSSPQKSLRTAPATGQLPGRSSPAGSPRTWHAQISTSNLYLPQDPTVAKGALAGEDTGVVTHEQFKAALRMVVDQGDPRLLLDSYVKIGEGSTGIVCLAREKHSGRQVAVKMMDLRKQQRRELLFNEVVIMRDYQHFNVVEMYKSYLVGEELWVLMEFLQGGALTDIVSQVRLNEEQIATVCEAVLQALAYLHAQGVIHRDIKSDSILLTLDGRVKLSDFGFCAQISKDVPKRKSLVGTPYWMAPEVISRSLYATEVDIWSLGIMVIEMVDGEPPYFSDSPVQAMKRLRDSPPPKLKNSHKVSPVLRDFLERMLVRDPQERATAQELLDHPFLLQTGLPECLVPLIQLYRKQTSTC
Text: as §1

PKA = PKA (Homo sapiens (Human), UniProt P17612); assay: kinase panel residual activity test; conditions: compound at 10 μM
Text: as §1

PKD1 = PKD1 (Homo sapiens (Human), UniProt Q15139); assay: kinase panel residual activity test; conditions: compound at 10 μM
Text: as §1

PRAK = PRAK (Homo sapiens (Human), UniProt Q8IW41); assay: kinase panel residual activity test; conditions: compound at 10 μM
Text: as §1

PRK2 = PRK2 (Homo sapiens (Human), UniProt Q16513); assay: kinase panel residual activity test; conditions: compound at 10 μM
Text: as §1

ROCK2 = ROCK2 (Homo sapiens (Human), UniProt O75116); assay: kinase panel residual activity test; conditions: compound at 10 μM
Text: as §1

RSK1 = RSK1 (Homo sapiens (Human), UniProt Q15418); assay: kinase panel residual activity test; conditions: compound at 10 μM
Text: as §1

RSK2 = RSK2 (Homo sapiens (Human), UniProt P51812); assay: kinase panel residual activity test; conditions: compound at 10 μM
RSK2, sequence (P51812 whole entry, species assumed): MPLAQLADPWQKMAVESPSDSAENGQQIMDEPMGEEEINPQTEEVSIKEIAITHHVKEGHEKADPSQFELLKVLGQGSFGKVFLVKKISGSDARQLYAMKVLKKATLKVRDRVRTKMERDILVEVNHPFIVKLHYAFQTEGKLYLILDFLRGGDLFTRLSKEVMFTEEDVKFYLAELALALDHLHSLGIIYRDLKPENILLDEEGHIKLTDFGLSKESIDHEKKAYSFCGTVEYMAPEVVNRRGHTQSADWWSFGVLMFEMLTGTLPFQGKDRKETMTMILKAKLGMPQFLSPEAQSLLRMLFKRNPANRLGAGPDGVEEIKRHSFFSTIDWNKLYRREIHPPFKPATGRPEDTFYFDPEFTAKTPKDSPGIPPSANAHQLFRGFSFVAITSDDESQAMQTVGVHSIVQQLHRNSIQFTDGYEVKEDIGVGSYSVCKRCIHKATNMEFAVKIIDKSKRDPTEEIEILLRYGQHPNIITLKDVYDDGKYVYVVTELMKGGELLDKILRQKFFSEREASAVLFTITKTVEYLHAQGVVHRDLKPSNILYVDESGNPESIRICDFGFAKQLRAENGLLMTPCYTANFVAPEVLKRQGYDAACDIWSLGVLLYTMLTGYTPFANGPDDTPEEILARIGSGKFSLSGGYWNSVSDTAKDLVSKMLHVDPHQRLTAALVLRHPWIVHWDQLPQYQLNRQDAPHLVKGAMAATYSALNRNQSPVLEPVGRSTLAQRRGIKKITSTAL
Text: as §1

S6K1 = S6K1 (Homo sapiens (Human), UniProt P23443); assay: kinase panel residual activity test; conditions: compound at 10 μM
Text: as §1

SGK1 = SGK1 (Homo sapiens (Human), UniProt O00141); assay: kinase panel residual activity test; conditions: compound at 10 μM
SGK1, sequence (O00141 whole entry, species assumed): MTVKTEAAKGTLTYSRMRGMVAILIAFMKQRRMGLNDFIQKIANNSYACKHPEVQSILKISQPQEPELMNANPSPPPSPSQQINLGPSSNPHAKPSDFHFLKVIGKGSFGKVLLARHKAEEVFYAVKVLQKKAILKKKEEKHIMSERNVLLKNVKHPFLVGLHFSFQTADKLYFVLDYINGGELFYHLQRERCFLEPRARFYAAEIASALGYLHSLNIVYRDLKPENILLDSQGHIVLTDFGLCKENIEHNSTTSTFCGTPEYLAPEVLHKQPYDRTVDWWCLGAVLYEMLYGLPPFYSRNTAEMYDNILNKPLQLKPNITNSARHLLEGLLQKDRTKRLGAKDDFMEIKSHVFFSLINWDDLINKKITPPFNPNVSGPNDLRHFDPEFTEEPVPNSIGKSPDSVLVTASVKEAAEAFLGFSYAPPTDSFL
Text: as §1

p38a MAPK = p38a MAPK (Homo sapiens (Human), UniProt Q16539); assay: kinase panel residual activity test; conditions: compound at 10 μM
Text: as §1

p38g MAPK = p38g MAPK (Homo sapiens (Human), UniProt P53778); assay: kinase panel residual activity test; conditions: compound at 10 μM
Text: as §1

p38s MAPK = p38s MAPK (Homo sapiens (Human), UniProt O15264); assay: kinase panel residual activity test; conditions: compound at 10 μM
p38s MAPK, sequence (O15264 whole entry): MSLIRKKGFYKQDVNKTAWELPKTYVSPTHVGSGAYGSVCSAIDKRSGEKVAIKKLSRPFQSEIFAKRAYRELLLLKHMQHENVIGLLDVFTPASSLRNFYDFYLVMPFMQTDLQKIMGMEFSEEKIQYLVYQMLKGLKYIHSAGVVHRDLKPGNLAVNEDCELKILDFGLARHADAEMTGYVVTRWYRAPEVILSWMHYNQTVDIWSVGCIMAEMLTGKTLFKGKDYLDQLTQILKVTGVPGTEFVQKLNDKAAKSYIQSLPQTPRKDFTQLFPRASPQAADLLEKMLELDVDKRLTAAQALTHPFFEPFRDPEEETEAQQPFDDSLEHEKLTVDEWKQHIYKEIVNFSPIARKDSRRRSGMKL
Text: as §1

PIM-1 = PIM-1 (Homo sapiens (Human), UniProt P11309); assay: inhibition test on kinase PIM-1 (residual activity, IC50)
PIM-1, sequence (P11309 whole entry, species assumed): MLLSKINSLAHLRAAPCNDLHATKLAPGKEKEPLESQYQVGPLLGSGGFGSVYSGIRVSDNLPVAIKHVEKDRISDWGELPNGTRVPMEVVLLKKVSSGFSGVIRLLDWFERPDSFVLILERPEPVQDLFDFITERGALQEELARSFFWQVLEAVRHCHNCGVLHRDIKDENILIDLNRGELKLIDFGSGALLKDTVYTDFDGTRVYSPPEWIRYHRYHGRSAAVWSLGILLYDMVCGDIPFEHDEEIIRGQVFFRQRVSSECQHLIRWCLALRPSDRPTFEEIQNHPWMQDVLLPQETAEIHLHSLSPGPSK
Text: as §1
(§2) The results in terms of residual activity of the kinases after being placed in contact with the compounds of Examples 2, 3 and 5, at a concentration of 10 μM (10 μmol/L), are shown in Table 1 below.
(§3) The higher the residual activity of the kinase tested, the lower the inhibitory activity of the test compounds on the tested kinase.
(§4) The compounds according to the invention were then tested on the kinases PIM-1, PIM-2 and PIM-3.
(§5) The results in terms of percentage of residual activity after placing the compounds according to the invention in contact with each of the kinases PIM-1, PIM-2 and PIM-3 are given in Table 2 below.
(§6) The higher the residual activity, the lower the inhibitory activity of the test compounds.
(§7) The mean inhibitory concentrations (IC50) of certain preferred compounds of the invention were determined in the following manner: the IC50 values were measured after performing the inhibition tests on the kinases PIM-1, PIM-2 and PIM-3 at ten different concentrations for each test compound, and the IC50 value was determined from the dose-inhibition curves obtained.

PIM-2 = PIM-2 (Homo sapiens (Human), UniProt Q9P1W9); assay: inhibition test on kinase PIM-2 (residual activity, IC50)
PIM-2, sequence (Q9P1W9 whole entry, species assumed): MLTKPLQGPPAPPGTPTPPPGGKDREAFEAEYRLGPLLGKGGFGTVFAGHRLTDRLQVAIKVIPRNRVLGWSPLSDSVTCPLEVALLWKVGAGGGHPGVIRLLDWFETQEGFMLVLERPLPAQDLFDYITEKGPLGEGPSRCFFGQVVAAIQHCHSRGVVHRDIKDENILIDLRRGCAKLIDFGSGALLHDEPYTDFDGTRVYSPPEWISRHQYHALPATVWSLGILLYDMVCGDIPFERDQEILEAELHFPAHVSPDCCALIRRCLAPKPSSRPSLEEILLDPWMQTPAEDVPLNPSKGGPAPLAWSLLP
Text: as §1, §2, §3, §4, §5, §6, §7

PIM-3 = PIM-3 (Homo sapiens (Human), UniProt Q86V86); assay: inhibition test on kinase PIM-3 (residual activity, IC50)
Text: as §1, §2, §3, §4, §5, §6, §7

[1] = compound at 10 μM, Table 1 panel, read-out: % residual activity PIM-1
[2] = product at 10 μmol/L, Table 2, N.I. = not inhibitory, read-out: Percentage of residual activity PIM-1
[3] = compound at 10 μM, Table 1 panel, read-out: % residual activity PIM-2
[4] = product at 10 μmol/L, Table 2, N.I. = not inhibitory, read-out: Percentage of residual activity PIM-2
[5] = compound at 10 μM, Table 1 panel, read-out: % residual activity PIM-3
[6] = product at 10 μmol/L, Table 2, N.I. = not inhibitory, read-out: Percentage of residual activity PIM-3
[7] = ten concentrations, dose-inhibition curve

Structure (SMILES) | % residual activity AMPK (AMPK) [%] | remaining activity at 10 µM (Aurora B) [%] | remaining activity at 10 µM (BRSK2) [%] | remaining activity at 10 µM (CAMK1) [%] | % residual activity CK1 (CK1) [%] | remaining activity at 10 µM (EF2K) [%] | remaining activity at 10 µM (GSK3b) [%] | remaining activity at 10 µM (JNK1) [%] | remaining activity at 10 µM (NEK7) [%] | remaining activity at 10 µM (PAK6) [%] | remaining activity at 10 µM (PKA) [%] | remaining activity at 10 µM (PKD1) [%] | remaining activity at 10 µM (PRAK) [%] | remaining activity at 10 µM (PRK2) [%] | remaining activity at 10 µM (RSK2) [%] | remaining activity at 10 µM (S6K1) [%] | remaining activity at 10 µM (SGK1) [%] | remaining activity at 10 µM (p38a MAPK) [%] | remaining activity at 10 µM (p38g MAPK) [%] | remaining activity at 10 µM (p38s MAPK) [%] | also measured
c1ccc2c(c1)[nH]c1c2ccc2cc[nH]c21 [Example 2, 1,10-dihydropyrrolo[2,3-a]carbazole] | 80 | 67 | 58 | 29 | 107 | 101 | 111 | 102 | 96 | 92 | 95 | 83 | 97 | 95 | 129 | 89 | 82 | 108 | 111 | 78 | % residual activity CK2 (CK2): 91%; remaining activity at 10 µM (ERK2): 94%; remaining activity at 10 µM (Lck): 88%; remaining activity at 10 µM (MKK1): 87%; remaining activity at 10 µM (ROCK2): 86%; remaining activity at 10 µM (RSK1): 105%; remaining activity at 10 µM (PIM-1; [1]): 20%; remaining activity at 10 µM (PIM-1; [2]): 20%; remaining activity at 10 µM (PIM-2; [3]): 62%; remaining activity at 10 µM (PIM-2; [4]): 62%; remaining activity at 10 µM (PIM-3; [5]): 10%; remaining activity at 10 µM (PIM-3; [6]): 10%
O=Cc1c[nH]c2c1ccc1c3ccccc3[nH]c12 [Example 3, 1,10-dihydropyrrolo[2,3-a]carbazole-3-carbaldehyde] | 59 | 68 | 22 | 71 |  | 90 | 88 | 102 | 89 | 94 | 60 | 28 | 72 | 31 | 124 | 38 | 64 | 102 | 74 | 92 | 
NC(=O)c1c[nH]c2c1ccc1c3ccccc3[nH]c12 [Example 5, 1,10-dihydropyrrolo[2,3-a]carbazole-3-carboxamide] | 85 | 65 | 32 | 80 | 96 | 92 | 91 | 106 | 89 | 83 | 80 | 19 | 85 | 54 | 97 | 72 | 71 | 96 | 96 | 76 | % residual activity CK2 (CK2): 77%; remaining activity at 10 µM (ERK2): 93%; remaining activity at 10 µM (Lck): 78%; remaining activity at 10 µM (MKK1): 80%; remaining activity at 10 µM (ROCK2): 48%; remaining activity at 10 µM (RSK1): 79%; remaining activity at 10 µM (PIM-1; [1]): 9%; remaining activity at 10 µM (PIM-1; [2]): 9%; IC50 (PIM-1; [7]): 780 nM; remaining activity at 10 µM (PIM-2; [3]): 27%; remaining activity at 10 µM (PIM-2; [4]): 27%; remaining activity at 10 µM (PIM-3; [5]): 9%; remaining activity at 10 µM (PIM-3; [6]): 9%; IC50 (PIM-3; [7]): 210 nM
